The pEC50 is −log10 of the EC50, conventionally taken in molar units.

These results are taken from patent publication US20260201008A1, “SECRETIN-DERIVED GLP1R SELECTIVE AGONISTS” (GUBRA A/S, priority 2023, published 2026).

Series [1] in a line: Turbidity of crude library peptides (absorbance at 600 nm). Type of series: physicochemical. The settings on record: Physical stability of peptides. The essentials: (§1)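 Turbidity is the absorbance at 600 nm, taken before heating. Fibril signal is the mean ThT emission at 480 nm (450 nm excitation), read every 10 min over 72 h at 40° C with 700 rpm shaking between reads. Peptides at 267 μM, pH 4.0 acetate or pH 7.0 phosphate buffer (50 mM), 4 μM ThT final.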

Series [2] is described as follows: Fibril formation of crude library peptides (Thioflavin T). The series is classed as physicochemical. More on the design: key: average ThT fluorescence emission at 480 nm (ex 450 nm), raw units. To be noted: Physical stability of peptides. The essentials: as §1
Series [3] concerns the target GLP1R (Homo sapiens, UniProt P43220). Description: hGLP1R potency, cAMP accumulation in CHO-K1 cells stably overexpressing hGLP1R. The series is classed as cell-based. More on the design: host or cells: CHO-K1. The settings on record: for Selectivity: SCTR EC50/GLP1R EC50 ratio; for EC50: cAMP accumulation, CHO-K1 cells overexpressing hGLP1R, read-out: pEC50 hGLPR1 (converted). The essentials: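 2000 cells/well, DPBS + 0.05% casein + 0.5 mM IBMX; 30 min RT stimulation; HTRF cAMP detection after 1 h. Purified: 3-fold ×11, n=2; crude: 10-fold ×5, n=1. EC50 by variable-slope fit.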
For orientation: cAMP levels reflect the balance of adenylyl cyclase and phosphodiesterase activity.

In series [4] the target is SCTR (Homo sapiens, UniProt P47872). Description: hSCTR potency, cAMP accumulation in CHO-K1 cells stably overexpressing hSCTR. The series is classed as cell-based. More on the design: alternatively Euroscreen ES-712-AF; FAST-0161L; host or cells: CHO-K1. To be noted: for EC50: cAMP accumulation, CHO-K1 cells overexpressing hSCTR, read-out: pEC50 hSCTR (converted). The essentials:
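Thawed CHO-K1 cells carrying stable hSCTR are plated into casein/IBMX buffer (0.05%, 0.5 mM), dosed immediately for 30 min at room temperature, then cAMP is detected by TR-FRET. Purified peptides run as 11 three-fold dilutions in duplicate, and curves are fitted with variable slope.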

Structures are written as SMILES. pEC50: −log10 of the molar value. Like-named read-outs stand apart in the source and are kept apart here. Numbered stars: 1 amine (or outer) side, 2 acyl side, 3 side chain; on linkers, the order of the positions; unused ones are H or OH. Square brackets hold non-standard residues; d marks the D form. Side chains are listed from the residue outwards. Peptide text beside a SMILES is read from it. * marks the point of attachment. C20 diacid = O=C(O)CCCCCCCCCCCCCCCCCCC(=O)*; γGlu = O=C(O)[C@H](CCC(=O)[*:2])N[*:1]; AEEA = NCCOCCOCC(=O)O; Aib = CC(C)(N)C(=O)O

Chain of SCTR (P47872 23-440): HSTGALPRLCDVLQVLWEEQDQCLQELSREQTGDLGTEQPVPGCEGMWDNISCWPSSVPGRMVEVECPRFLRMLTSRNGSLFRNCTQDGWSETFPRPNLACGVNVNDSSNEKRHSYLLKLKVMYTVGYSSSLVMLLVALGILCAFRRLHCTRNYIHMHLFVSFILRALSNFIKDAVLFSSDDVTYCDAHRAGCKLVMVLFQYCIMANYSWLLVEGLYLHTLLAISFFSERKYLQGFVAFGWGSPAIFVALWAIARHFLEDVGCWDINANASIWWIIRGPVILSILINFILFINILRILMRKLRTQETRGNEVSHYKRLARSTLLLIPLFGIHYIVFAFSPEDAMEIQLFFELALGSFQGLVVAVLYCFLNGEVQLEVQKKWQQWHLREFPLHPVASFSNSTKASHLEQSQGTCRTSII
Chain of GLP1R (P43220 24-463): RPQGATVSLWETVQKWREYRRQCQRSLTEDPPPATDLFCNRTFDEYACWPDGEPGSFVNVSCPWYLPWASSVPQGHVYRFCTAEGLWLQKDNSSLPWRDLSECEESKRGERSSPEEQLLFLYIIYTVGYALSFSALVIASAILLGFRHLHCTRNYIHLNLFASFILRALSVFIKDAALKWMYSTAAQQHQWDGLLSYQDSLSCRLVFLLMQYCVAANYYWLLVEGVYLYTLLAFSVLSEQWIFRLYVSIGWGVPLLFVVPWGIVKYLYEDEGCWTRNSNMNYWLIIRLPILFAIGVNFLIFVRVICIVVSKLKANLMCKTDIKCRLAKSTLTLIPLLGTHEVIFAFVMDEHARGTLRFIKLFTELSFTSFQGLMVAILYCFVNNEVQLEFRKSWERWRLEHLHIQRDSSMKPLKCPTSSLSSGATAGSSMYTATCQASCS

`CC(C)C[C@H](NC(=O)[C@H](Cc1ccccc1)NC(=O)[C@H](CCCNC(=N)N)NC(=O)[C@H](CCC(N)=O)NC(=O)[C@H](CCC(N)=O)NC(=O)[C@H](C)NC(=O)[C@H](C)NC(=O)[C@@H](NC(=O)[C@H](CCC(=O)O)NC(=O)[C@H](CCCCNC(=O)COCCOCCNC(=O)COCCOCCNC(=O)CC[C@H](NC(=O)CCCCCCCCCCCCCCCCCCC(=O)O)C(=O)O)NC(=O)[C@H](CC(C)C)NC(=O)[C@@H](NC(=O)[C@H](CO)NC(=O)[C@@H](NC(=O)[C@H](CC(=O)O)NC(=O)[C@H](CO)NC(=O)[C@@H](NC(=O)[C@H](Cc1ccccc1)NC(=O)[C@@H](NC(=O)CNC(=O)[C@H](CCC(=O)O)NC(=O)C(C)(C)NC(=O)[C@@H](N)Cc1c[nH]cn1)[C@@H](C)O)[C@@H](C)O)C(C)C)C(C)C)[C@@H](C)O)C(=O)N[C@@H](CCC(=O)O)C(=O)N[C@@H](Cc1c[nH]cn1)C(=O)N[C@@H](CC(C)C)C(=O)N[C@H](C(N)=O)C(C)C` [compound 41] (H-H[Aib]EGTFTSDVSVLK([AEEA-AEEA-γGlu-C20 diacid])ETAAQQRFLEHLV-NH2): the “Turbidity (pH 7)” value in series [1] is 0.08. Further, the Fibril formation in series [2] was 109124. In series [3], the Selectivity turned out to be 16199. For the same compound, the results for the EC50 in series [3] and in series [4] were 0.00794 nM and 126 nM, respectively.

As to `CC(C)C[C@H](NC(=O)[C@H](Cc1ccccc1)NC(=O)[C@H](CCCNC(=N)N)NC(=O)[C@H](CCC(N)=O)NC(=O)[C@H](CCC(=O)O)NC(=O)[C@H](C)NC(=O)[C@H](C)NC(=O)[C@@H](NC(=O)[C@H](CCC(=O)O)NC(=O)[C@H](CCCCNC(=O)COCCOCCNC(=O)COCCOCCNC(=O)CC[C@H](NC(=O)CCCCCCCCCCCCCCCCCCC(=O)O)C(=O)O)NC(=O)[C@H](CC(C)C)NC(=O)[C@@H](NC(=O)[C@H](CO)NC(=O)[C@@H](NC(=O)[C@H](CC(=O)O)NC(=O)[C@H](CO)NC(=O)[C@@H](NC(=O)[C@H](Cc1ccccc1)NC(=O)[C@@H](NC(=O)CNC(=O)[C@H](CCC(=O)O)NC(=O)C(C)(C)NC(=O)[C@@H](N)Cc1c[nH]cn1)[C@@H](C)O)[C@@H](C)O)C(C)C)[C@@H](C)O)[C@@H](C)O)C(=O)N[C@@H](CCC(=O)O)C(=O)N[C@@H](Cc1c[nH]cn1)C(=O)N[C@@H](CC(C)C)C(=O)N[C@H](C(N)=O)C(C)C` [compound 42] (H-H[Aib]EGTFTSDVSTLK([AEEA-AEEA-γGlu-C20 diacid])ETAAEQRFLEHLV-NH2), the “Turbidity (pH 7)” value in series [1] is 0.08. The same compound showed a Fibril formation in series [2] of 6253. In series [3], the Selectivity was found to be 209363 and the EC50 is 0.0158 nM. Moreover, the EC50 in series [4] was 3160 nM.

Take `CC(C)C[C@H](NC(=O)[C@H](Cc1ccccc1)NC(=O)[C@H](CCCNC(=N)N)NC(=O)[C@H](CCC(N)=O)NC(=O)[C@H](C)NC(=O)[C@H](C)NC(=O)[C@H](C)NC(=O)C(C)(C)NC(=O)[C@H](CCC(=O)O)NC(=O)[C@H](CCCCNC(=O)COCCOCCNC(=O)COCCOCCNC(=O)CC[C@H](NC(=O)CCCCCCCCCCCCCCCCCCC(=O)O)C(=O)O)NC(=O)[C@H](CC(C)C)NC(=O)[C@@H](NC(=O)[C@H](CO)NC(=O)[C@@H](NC(=O)[C@H](CC(=O)O)NC(=O)[C@H](CO)NC(=O)[C@@H](NC(=O)[C@H](Cc1ccccc1)NC(=O)[C@@H](NC(=O)CNC(=O)[C@H](CCC(=O)O)NC(=O)C(C)(C)NC(=O)[C@@H](N)Cc1c[nH]cn1)[C@@H](C)O)[C@@H](C)O)C(C)C)[C@@H](C)O)C(=O)N[C@@H](CCC(=O)O)C(=O)N[C@@H](Cc1c[nH]cn1)C(=O)N[C@@H](CC(C)C)C(=O)N[C@H](C(N)=O)C(C)C` [compound 43] (H-H[Aib]EGTFTSDVSTLK([AEEA-AEEA-γGlu-C20 diacid])E[Aib]AAAQRFLEHLV-NH2): the “Turbidity (pH 7)” value in series [1] amounted to 0.09. Also, the Fibril formation in series [2] worked out at 18355. In series [3], the pEC50 was 11.00 and the Selectivity was determined as 36686. In series [4], this compound gave a pEC50 of 6.50.

For `CC(C)C[C@H](NC(=O)[C@H](Cc1ccccc1)NC(=O)[C@H](CCCNC(=N)N)NC(=O)[C@H](CCC(N)=O)NC(=O)[C@H](C)NC(=O)[C@H](C)NC(=O)[C@H](C)NC(=O)[C@@H](NC(=O)[C@H](CCC(=O)O)NC(=O)[C@H](CCCCNC(=O)COCCOCCNC(=O)COCCOCCNC(=O)CC[C@H](NC(=O)CCCCCCCCCCCCCCCCCCC(=O)O)C(=O)O)NC(=O)[C@H](CC(C)C)NC(=O)[C@H](Cc1ccccc1)NC(=O)[C@H](CO)NC(=O)[C@@H](NC(=O)[C@H](CC(=O)O)NC(=O)[C@H](CO)NC(=O)[C@@H](NC(=O)[C@H](Cc1ccccc1)NC(=O)[C@@H](NC(=O)CNC(=O)[C@H](CCC(=O)O)NC(=O)C(C)(C)NC(=O)[C@@H](N)Cc1c[nH]cn1)[C@@H](C)O)[C@@H](C)O)C(C)C)[C@@H](C)O)C(=O)N[C@@H](CCC(=O)O)C(=O)N[C@@H](Cc1c[nH]cn1)C(=O)N[C@@H](CC(C)C)C(=O)N[C@H](C(N)=O)C(C)C` [compound 44] (H-H[Aib]EGTFTSDVSFLK([AEEA-AEEA-γGlu-C20 diacid])ETAAAQRFLEHLV-NH2), the “Turbidity (pH 7)” value in series [1] is given as 0.08. The Fibril formation in series [2] is given as 10742. For the same compound, the Selectivity in series [3] is 114525. Also, the results for the EC50 in series [3] and in series [4] were 0.0316 nM and 3980 nM, respectively.

Consider `CC(C)C[C@H](NC(=O)[C@H](Cc1ccccc1)NC(=O)[C@H](CCCNC(=N)N)NC(=O)[C@H](CCC(N)=O)NC(=O)C(C)(C)NC(=O)[C@H](C)NC(=O)[C@H](C)NC(=O)[C@@H](NC(=O)[C@H](CCC(=O)O)NC(=O)[C@H](CCCCNC(=O)COCCOCCNC(=O)COCCOCCNC(=O)CC[C@H](NC(=O)CCCCCCCCCCCCCCCCCCC(=O)O)C(=O)O)NC(=O)[C@H](CC(C)C)NC(=O)[C@H](CCC(=O)O)NC(=O)[C@H](CO)NC(=O)[C@@H](NC(=O)[C@H](CC(=O)O)NC(=O)[C@H](CO)NC(=O)[C@@H](NC(=O)[C@H](Cc1ccccc1)NC(=O)[C@@H](NC(=O)CNC(=O)[C@H](CCC(=O)O)NC(=O)C(C)(C)NC(=O)[C@@H](N)Cc1c[nH]cn1)[C@@H](C)O)[C@@H](C)O)C(C)C)[C@@H](C)O)C(=O)N[C@@H](CCC(=O)O)C(=O)N[C@@H](Cc1c[nH]cn1)C(=O)N[C@@H](CC(C)C)C(=O)N[C@H](C(N)=O)C(C)C` [compound 45] (H-H[Aib]EGTFTSDVSELK([AEEA-AEEA-γGlu-C20 diacid])ETAA[Aib]QRFLEHLV-NH2), for which the “Turbidity (pH 7)” value in series [1] was found to be 0.09. In series [2], this compound displayed a Fibril formation of 14290. In series [3], the Selectivity turned out to be 86896 and the EC50 was 0.02 nM. The EC50 in series [4] was 2000 nM.

As to `CC(C)C[C@H](NC(=O)[C@H](Cc1ccccc1)NC(=O)[C@H](CCCNC(=N)N)NC(=O)[C@H](CCC(N)=O)NC(=O)C(C)(C)NC(=O)[C@H](C)NC(=O)[C@H](C)NC(=O)[C@H](Cc1ccccc1)NC(=O)[C@H](CCC(=O)O)NC(=O)[C@H](CCCCNC(=O)COCCOCCNC(=O)COCCOCCNC(=O)CC[C@H](NC(=O)CCCCCCCCCCCCCCCCCCC(=O)O)C(=O)O)NC(=O)[C@H](CC(C)C)NC(=O)[C@H](Cc1ccc(O)cc1)NC(=O)[C@H](CO)NC(=O)[C@@H](NC(=O)[C@H](CC(=O)O)NC(=O)[C@H](CO)NC(=O)[C@@H](NC(=O)[C@H](Cc1ccccc1)NC(=O)[C@@H](NC(=O)CNC(=O)[C@H](CCC(=O)O)NC(=O)C(C)(C)NC(=O)[C@@H](N)Cc1c[nH]cn1)[C@@H](C)O)[C@@H](C)O)C(C)C)C(=O)N[C@@H](CCC(=O)O)C(=O)N[C@@H](Cc1c[nH]cn1)C(=O)N[C@@H](CC(C)C)C(=O)N[C@H](C(N)=O)C(C)C` [compound 46] (H-H[Aib]EGTFTSDVSYLK([AEEA-AEEA-γGlu-C20 diacid])EFAA[Aib]QRFLEHLV-NH2), the “Turbidity (pH 7)” value in series [1] came out at 0.08. In series [2], this compound returned a Fibril formation of 16732. Besides, in series [3], the Selectivity came to 67329 and the EC50 was 0.0501 nM. Also, the EC50 in series [4] is 3980 nM.

With `CC(C)C[C@H](NC(=O)[C@H](Cc1ccccc1)NC(=O)[C@H](CCCNC(=N)N)NC(=O)[C@H](CCC(N)=O)NC(=O)[C@H](CCC(N)=O)NC(=O)[C@H](C)NC(=O)[C@H](C)NC(=O)[C@H](CCC(=O)O)NC(=O)[C@H](CCC(=O)O)NC(=O)[C@H](CCCCNC(=O)COCCOCCNC(=O)COCCOCCNC(=O)CC[C@H](NC(=O)CCCCCCCCCCCCCCCCCCC(=O)O)C(=O)O)NC(=O)[C@H](CC(C)C)NC(=O)[C@H](Cc1ccc(O)cc1)NC(=O)[C@H](CO)NC(=O)[C@@H](NC(=O)[C@H](CC(=O)O)NC(=O)[C@H](CO)NC(=O)[C@@H](NC(=O)[C@H](Cc1ccccc1)NC(=O)[C@@H](NC(=O)CNC(=O)[C@H](CCC(=O)O)NC(=O)C(C)(C)NC(=O)[C@@H](N)Cc1c[nH]cn1)[C@@H](C)O)[C@@H](C)O)C(C)C)C(=O)N[C@@H](CCC(=O)O)C(=O)N[C@@H](Cc1c[nH]cn1)C(=O)N[C@@H](CC(C)C)C(=O)N[C@H](C(N)=O)C(C)C` [compound 47] (H-H[Aib]EGTFTSDVSYLK([AEEA-AEEA-γGlu-C20 diacid])EEAAQQRFLEHLV-NH2), the “Turbidity (pH 7)” value in series [1] amounted to 0.08. For the same compound, the Fibril formation in series [2] amounted to 13638. Moreover, in series [3], the Selectivity is on record as 17543 and the EC50 is 0.0158 nM. Moreover, the EC50 in series [4] was 251 nM.
